The target of data set [1] is T1, Recombinant human PI3Kγ (full length human PI3K p110γ) (Homo sapiens, UniProt P48736).
T1 construct: full length human PI3K p110γ fused with a His6-tag at the C-terminus; His6 (C); purchased ALEXIS BIOCHEMICALS #201-055-C010; host or cells: S. frugiperda 9 insect cells
The data set is described as follows: Kinase assay of PI3Kγ (solid-phase lipid kinase assay). Format: biochemical. Conditions: in vitro PI3K-γ inhibitory activity, class symbols; read-out: in vitro PI3K-gamma.

We go through 56 molecules from US7511041B2, “Fused azole-pyrimidine derivatives” (Bayer Pharmaceuticals Corporation, priority 2002, dated 2009).

For orientation: melting point means the temperature of the solid-liquid transition.

T1 sequence (P48736 whole entry, the tested form may be a part): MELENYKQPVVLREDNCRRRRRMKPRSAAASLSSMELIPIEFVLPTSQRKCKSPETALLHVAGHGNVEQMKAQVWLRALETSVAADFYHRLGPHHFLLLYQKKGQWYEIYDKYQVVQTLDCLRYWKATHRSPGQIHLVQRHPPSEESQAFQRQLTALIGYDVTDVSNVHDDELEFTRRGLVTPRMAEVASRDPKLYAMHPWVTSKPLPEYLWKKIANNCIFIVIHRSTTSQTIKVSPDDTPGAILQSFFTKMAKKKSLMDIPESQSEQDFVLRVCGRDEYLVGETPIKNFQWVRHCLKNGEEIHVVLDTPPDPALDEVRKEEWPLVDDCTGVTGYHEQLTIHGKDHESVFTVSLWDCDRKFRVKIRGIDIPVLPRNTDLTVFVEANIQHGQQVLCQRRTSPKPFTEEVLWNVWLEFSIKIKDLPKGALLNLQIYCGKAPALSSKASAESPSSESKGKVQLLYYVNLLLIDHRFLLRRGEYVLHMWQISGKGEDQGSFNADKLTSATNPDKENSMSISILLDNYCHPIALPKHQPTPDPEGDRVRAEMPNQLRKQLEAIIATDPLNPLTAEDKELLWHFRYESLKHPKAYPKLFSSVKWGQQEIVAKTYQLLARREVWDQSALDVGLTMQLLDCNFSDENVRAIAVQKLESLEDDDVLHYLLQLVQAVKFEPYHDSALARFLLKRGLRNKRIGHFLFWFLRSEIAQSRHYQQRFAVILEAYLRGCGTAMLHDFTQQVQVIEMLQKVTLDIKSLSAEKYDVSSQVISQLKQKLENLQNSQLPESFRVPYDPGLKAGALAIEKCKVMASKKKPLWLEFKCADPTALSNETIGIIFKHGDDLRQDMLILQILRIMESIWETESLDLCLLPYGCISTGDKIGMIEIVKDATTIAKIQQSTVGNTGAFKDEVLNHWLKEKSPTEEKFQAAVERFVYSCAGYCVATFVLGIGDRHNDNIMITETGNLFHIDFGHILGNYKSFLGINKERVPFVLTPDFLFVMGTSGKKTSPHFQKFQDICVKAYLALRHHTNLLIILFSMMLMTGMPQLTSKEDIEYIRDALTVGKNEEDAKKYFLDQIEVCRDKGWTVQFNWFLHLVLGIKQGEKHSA

`Cc1cccc2c1N=C(NC(=O)c1cccnc1)N1CCN=C21` [Example 2-107] showed a melting point of 244 °C. In addition, the IC50 in data set [1] was in the range of 100 to 500 nM.

For the molecule `Cc1cccc2c1N=C(NC(=O)c1ccc3[nH]cnc3c1)N1CCN=C21` [Example 2-109], the melting point is more than 290 °C. In addition, the IC50 in data set [1] was less than 100 nM.

`Cl.O=C(NC1=Nc2c(cccc2C(F)(F)F)C2=NCCN12)c1cccnc1` [Example 2-111]: the melting point was found to be 263 °C. Further, in data set [1], the IC50 is less than 100 nM.

Turning to `O=C(NC1=Nc2c(cccc2C(F)(F)F)C2=NCCN12)c1ccc2[nH]cnc2c1` [Example 2-112], the melting point was 286 °C. In addition, the IC50 in data set [1] is less than 100 nM.

`COc1cccc2c1N=C(NC(=O)c1cccnc1)N1CCN=C21` [Example 2-114] came in with a melting point of 110 °C. Besides, the IC50 in data set [1] is less than 100 nM.

In turn, `COc1cccc2c1N=C(NC(=O)c1cccnc1C)N1CCN=C21` [Example 2-116] had a melting point of 204 to 205 °C. For the same molecule, the IC50 in data set [1] fell in the range of 100 to 500 nM.

With `COc1cccc2c1N=C(NC(=O)c1cccnc1C)N1CCN=C21.Cl` [Example 2-117], the melting point is 251 °C (dec.). In addition, the IC50 in data set [1] was less than 100 nM.

For the molecule `COc1cccc2c1N=C(NC(=O)c1cccnc1Cl)N1CCN=C21` [Example 2-118], the melting point is 185 °C (dec.). Also, the IC50 in data set [1] is less than 100 nM.

Take `COc1cccc2c1N=C(NC(=O)c1cnccc1C)N1CCN=C21.Cl` [Example 2-120]: the melting point is 220 °C (dec.). Further, in data set [1], the IC50 was less than 100 nM.

Turning to `COc1cccc2c1N=C(NC(=O)c1cnccc1C(F)(F)F)N1CCN=C21` [Example 2-121], the melting point lay in the range of 144 to 145 °C. In addition, the IC50 in data set [1] lay within 100 to 500 nM.

`COc1cccc2c1N=C(NC(=O)c1cncc(O)c1)N1CCN=C21.Cl` [Example 2-122]: the melting point is 285 °C (dec.). Also, in data set [1], the IC50 is less than 100 nM.

Molecule `COc1cccc2c1N=C(NC(=O)c1ccc(N)nc1)N1CCN=C21.Cl` [Example 2-123] gave a melting point of 296 °C. Besides, the IC50 in data set [1] was less than 100 nM.

On to `COc1cccc2c1N=C(NC(=O)c1ccc3[nH]cnc3c1)N1CCN=C21` [Example 2-124], for which the melting point was 287 °C. Further, the IC50 in data set [1] is less than 100 nM.

Turning to `COc1cccc2c1N=C(NC(=O)c1cc3cccnc3nc1C)N1CCN=C21` [Example 2-126], the melting point was in the range of 183 to 184 °C. Besides, the IC50 in data set [1] is less than 100 nM.

As for `COc1cccc2c1N=C(NC(=O)c1cc3cccnc3nc1C(F)(F)F)N1CCN=C21` [Example 2-128], the melting point is 214 °C (dec.). For the same molecule, in data set [1], the IC50 is less than 100 nM.

On to `O=C(NC1=Nc2ccccc2C2=NCCN12)c1cccnc1.O=C(O)C(F)(F)F` [Example 2-130], for which the melting point lay in the range of 237 to 239 °C. The IC50 in data set [1] is less than 100 nM.

`Cc1ncccc1C(=O)NC1=Nc2ccccc2C2=NCCN12` [Example 2-131] gave a melting point of 193 to 194 °C. For the same molecule, in data set [1], the IC50 lay in the range of 100 to 500 nM.

Consider `Nc1ncccc1C(=O)NC1=Nc2ccccc2C2=NCCN12` [Example 2-133], for which the melting point is 215 °C (dec.). In addition, the IC50 in data set [1] is 100 to 500 nM.

The molecule `O=C(NC1=Nc2ccccc2C2=NCCN12)c1cccnc1Cl` [Example 2-134] displayed a melting point of 198 to 199 °C. In data set [1], the IC50 is less than 100 nM.

For `Cl.O=C(NC1=Nc2ccccc2C2=NCCN12)c1cccnc1Cl` [Example 2-135], the melting point was 340 °C (dec.). In addition, in data set [1], the IC50 fell in the range of 100 to 500 nM.

In the case of `Cc1ccncc1C(=O)NC1=Nc2ccccc2C2=NCCN12` [Example 2-136], the melting point lay within 194 to 195 °C. Further, in data set [1], the IC50 lay within 100 to 500 nM.

`O=C(NC1=Nc2ccccc2C2=NCCN12)c1cncc(O)c1` [Example 2-138]: the melting point was 273 °C (dec.). Moreover, the IC50 in data set [1] is less than 100 nM.

Consider `COc1cncc(C(=O)NC2=Nc3ccccc3C3=NCCN23)c1` [Example 2-140], for which the melting point is 219 °C (dec.). In data set [1], the IC50 was 100 to 500 nM.

In turn, `O=C(O)c1cncc(C(=O)NC2=Nc3ccccc3C3=NCCN23)c1` [Example 2-142] came in with a melting point of 358 to 359 °C. The IC50 in data set [1] is 100 to 500 nM.

`CS(=O)(=O)Nc1cncc(C(=O)NC2=Nc3ccccc3C3=NCCN23)c1` [Example 2-143] came in with a melting point of 265 to 269 °C. The IC50 in data set [1] was less than 100 nM.

Take `Nc1cncc(C(=O)NC2=Nc3ccccc3C3=NCCN23)c1` [Example 2-144]: the melting point fell in the range of 263 to 266 °C. In addition, the IC50 in data set [1] was less than 100 nM.

`Nc1cncc(C(=O)NC2=Nc3ccccc3C3=NCCN23)c1.O=C(O)C(F)(F)F` [Example 2-145]: the melting point is 220 °C (dec.). The IC50 in data set [1] lay in the range of 100 to 500 nM.

Consider `CN(C)/C=N/c1cncc(C(=O)NC2=Nc3ccccc3C3=NCCN23)c1` [Example 2-146], for which the melting point is 219 °C (dec.). The IC50 in data set [1] was in the range of 100 to 500 nM.

In turn, `Cc1ccc(C(=O)NC2=Nc3ccccc3C3=NCCN23)cn1` [Example 2-147] yielded a melting point of 195 to 196 °C. Besides, the IC50 in data set [1] is less than 100 nM.

For the molecule `Nc1ccc(C(=O)NC2=Nc3ccccc3C3=NCCN23)cn1` [Example 2-149], the melting point was more than 300 °C. For the same molecule, the IC50 in data set [1] was less than 100 nM.

As for `CC(=O)Nc1ccc(C(=O)NC2=Nc3ccccc3C3=NCCN23)cn1` [Example 2-151], the melting point is 320 °C (dec.). Moreover, the IC50 in data set [1] was less than 100 nM.

For `CNc1ccc(C(=O)NC2=Nc3ccccc3C3=NCCN23)cn1` [Example 2-153], the melting point lay within 196 to 197 °C. Besides, the IC50 in data set [1] lay in the range of 100 to 500 nM.

As to `Cl.O=C(NC1=Nc2ccccc2C2=NCCN12)c1ccc(Cl)nc1` [Example 2-155], the melting point is 324 °C (dec.). Besides, the IC50 in data set [1] lay within 100 to 500 nM.

As to `Cc1ccc(C(=O)NC2=Nc3ccccc3C3=NCCN23)c(Cl)n1.Cl` [Example 2-156], the melting point was 287 °C (dec.). The IC50 in data set [1] lay in the range of 100 to 500 nM.

On to `Cc1nc(N)ccc1C(=O)NC1=Nc2ccccc2C2=NCCN12` [Example 2-157], for which the melting point lay in the range of 146 to 148 °C. Also, the IC50 in data set [1] was in the range of 100 to 500 nM.

The molecule `Cc1cc(C(=O)NC2=Nc3ccccc3C3=NCCN23)cnc1N` [Example 2-159] gave a melting point of 246 to 247 °C. Moreover, the IC50 in data set [1] lay within 100 to 500 nM.

Consider `Cc1c(C(=O)NC2=Nc3ccccc3C3=NCCN23)cnc(N)c1C.Cl` [Example 2-161], for which the melting point was 298 °C (dec.). In addition, the IC50 in data set [1] lay within 100 to 500 nM.

For `Nc1cccc(C(=O)NC2=Nc3ccccc3C3=NCCN23)c1.O=C(O)C(F)(F)F` [Example 2-162], the melting point was 191 °C (dec.). Besides, the IC50 in data set [1] lay within 100 to 500 nM.

With `Nc1ccc(C(=O)NC2=Nc3ccccc3C3=NCCN23)cc1.O=C(O)C(F)(F)F` [Example 2-163], the melting point was 232 °C (dec.). In addition, the IC50 in data set [1] is 100 to 500 nM.

Take `Cl.Cn1cnc2cc(C(=O)NC3=Nc4ccccc4C4=NCCN34)ccc21` [Example 2-167]: the melting point was 333 °C (dec.). Also, in data set [1], the IC50 is 100 to 500 nM.

Consider `Cl.O=C(NC1=Nc2ccccc2C2=NCCN12)c1cccc2[nH]ccc12` [Example 2-169], for which the melting point was 295 °C (dec.). Moreover, in data set [1], the IC50 lay in the range of 100 to 500 nM.

Consider `Cc1nc2ccccn2c1C(=O)NC1=Nc2ccccc2C2=NCCN12` [Example 2-170], for which the melting point fell in the range of 277 to 279 °C. Besides, the IC50 in data set [1] was 100 to 500 nM.

Regarding `O=C(NC1=Nc2ccccc2C2=NCCN12)c1cnc2[nH]cnc2c1` [Example 2-172], the melting point was more than 300 °C. Further, the IC50 in data set [1] is less than 100 nM.

Consider `Cc1nc2ncccc2cc1C(=O)NC1=Nc2ccccc2C2=NCCN12` [Example 2-174], for which the melting point was 296 °C (dec.). For the same molecule, in data set [1], the IC50 lay within 100 to 500 nM.

On to `Cl.O=C(NC1=Nc2ccccc2C2=NCCN12)c1cc2cccnc2nc1C(F)(F)F` [Example 2-176], for which the melting point lay in the range of 248 to 249 °C. Moreover, in data set [1], the IC50 was in the range of 100 to 500 nM.

For `O=C(NC1=Nc2ccccc2C2=NCCN12)c1ccc2cccnc2n1` [Example 2-177], the melting point is 275 °C (dec.). Further, in data set [1], the IC50 fell in the range of 100 to 500 nM.

As for `O=C(NC1=Nc2ccccc2C2=NCCN12)c1cccs1` [Example 2-178], the melting point lay within 187 to 188 °C. Also, in data set [1], the IC50 was 100 to 500 nM.

Regarding `Cl.O=C(NC1=Nc2ccccc2C2=NCCN12)c1cccs1` [Example 2-179], the melting point is 310 °C (dec.). Besides, the IC50 in data set [1] is less than 100 nM.

`O=C(NC1=Nc2ccccc2C2=NCCN12)c1sccc1Cl` [Example 2-180] yielded a melting point of 198 to 199 °C. The IC50 in data set [1] was 100 to 500 nM.

Take `Cc1ccsc1C(=O)NC1=Nc2ccccc2C2=NCCN12.Cl` [Example 2-182]: the melting point is more than 250 °C. In addition, the IC50 in data set [1] fell in the range of 100 to 500 nM.

As for `O=C(NC1=Nc2ccccc2C2=NCCN12)c1ccsc1` [Example 2-183], the melting point was 167 °C (dec.). Also, the IC50 in data set [1] was 100 to 500 nM.

Consider `O=C(NC1=Nc2ccccc2C2=NCCN12)c1ccoc1` [Example 2-185], for which the melting point was in the range of 217 to 218 °C. For the same molecule, the IC50 in data set [1] lay in the range of 100 to 500 nM.

As to `Cc1nocc1C(=O)NC1=Nc2ccccc2C2=NCCN12.Cl` [Example 2-186], the melting point is 285 °C (dec.). Also, the IC50 in data set [1] lay in the range of 100 to 500 nM.

For `Cc1noc(C)c1C(=O)NC1=Nc2ccccc2C2=NCCN12.Cl` [Example 2-187], the melting point lay within 280 to 281 °C. In data set [1], the IC50 lay in the range of 100 to 500 nM.

`Cl.O=C(NC1=Nc2ccccc2C2=NCCN12)c1nccs1` [Example 2-188]: the melting point is 306 °C (dec.). Besides, in data set [1], the IC50 lay within 100 to 500 nM.

For the molecule `Cc1nc(C)c(C(=O)NC2=Nc3ccccc3C3=NCCN23)s1` [Example 2-189], the melting point was 243 °C (dec.). For the same molecule, the IC50 in data set [1] was in the range of 100 to 500 nM.
